Results from US7322965B2, “Infection-resistant medical devices” (priority 2002, dated 2008).
“Also recorded” adds a separate entry of the source. Where two headings read alike, the source gives them in different places.

Columns and labels:
[1] = test system: S. epidermidis RP62A; experiment: Time course adherence assay (prophylactic and delayed treatment); assay type: cell-based; conditions: for inhibition at 1 µg/mL / inhibition at 2 µg/mL / inhibition at 4 µg/mL / inhibition at 8 µg/mL: Staphylococcus epidermidis, read-out: Percent inhibition of bacterial adherence relative to controls
Description: (§1) Drug effects on bacterial adherence were measured 18 hours after treatment initiation using a quantitative spectrophotometric assay.
(§2) Relative inhibition of adherence was expressed by the following equation: (OD of control well−OD of treated well/OD of control well)×100, where OD is the mean optical density of six replicate wells from two separate experiments (three replicates per experiment). Control was defined as infected, drug-free cultures.
(§3) The primary efficacy variable in this study was the measurement of adherent bacteria to polystyrene surfaces after 18 hours to 24 hours of growth. To determine whether statistically significant differences existed between treatments (4×MIC, 2×MIC, MIC, and ½ MIC) compared with the infected-nontreated controls, multiple comparisons according to Dunnett's test (Montgomery, Design and Analysis of Experiments (1991)) were applied for each clinical strain. Differences were considered statistically significant when p<0.05.

[2] = test system: S. epidermidis UC-20207; experiment: as above; assay type: cell-based; conditions: for inhibition at 1 µg/mL / inhibition at 2 µg/mL / inhibition at 4 µg/mL / inhibition at 80 µg/mL: Staphylococcus epidermidis, read-out: Percent inhibition of bacterial adherence relative to controls; for Mean OD550: UC-20207
Description: as §1, §2, §3

[3] = test system: S. aureus and S. epidermidis strains; experiment: Microtiter-plate adherence assay, summary over all strains evaluated; assay type: cell-based, staphylococci
Description: Briefly, the inoculum was established by the direct colony suspension method using the Prompt™ Inoculation System (Becton Dickinson, Sparks, Md.). The bacteria suspension, which was equal to the turbidity of a 0.5 McFarland standard, was diluted in TSB to a concentration of 1×10^6 colony forming units per ml (CFU/mL). One hundred microliters of the cell suspension was added to flat-bottom polystyrene wells (Corning Costar, Corning, N.Y.) containing 100 μl of TSB, with and without drug. The final inoculum concentration per well was approximately 5×10^5 CFU/mL. The plates were incubated at 37° C. under static conditions in air. At 18 hours (h) post-infection, the optical density of bacterial growth was measured at a wavelength of 595 nm in a microtiter plate reader (Vmax; Molecular Devices, Sunnyvale, Calif.). […] Adherent “sessile” cells then were fixed with 3.7% (v/v) formaldehyde/2% (w/v) sodium acetate and stained with 0.1% (w/v) crystal violet. Excess stain was rinsed off with deionized water and the plates were air-dried for 4 h. The optical density of bacterial adherence was determined at a wavelength of 550 nm. Preliminary studies were performed to determine the optimal wavelengths for measuring growth turbidity and stained adherent cells (data not shown). To compensate for background absorbance, optical density readings from wells treated with sterile medium, fixative and stain as described above were averaged and then subtracted from all test and control wells. Relative inhibition of adherence or growth was expressed by the following equation: (OD of control well−OD of treated well/OD of control well)×100, where OD is the mean optical density of six replicate wells from two separate experiments (three replicates per experiment). Control was defined as infected, drug-free cultures.
The primary efficacy variable in this study was the measurement of adherent bacterial cells to polystyrene after 18 h of growth. To determine whether statistically significant differences existed between treatment groups (MIC, ½ MIC, and ¼ MIC) compared with the infected-nontreated controls, the Kruskal-Wallis one-way analysis of variance (ANOVA) was applied for each clinical strain. Statistical significance was defined as p-values ≦0.05. An asterisk (*) was placed by all test values less than or equal to the specified significance level.

[4] = 1.0 μg/ml, treatment 0 h post-infection
[5] = 1.0 μg/ml, treatment 2 h post-infection
[6] = 1.0 μg/ml, treatment 4 h post-infection
[7] = 1.0 μg/ml, treatment 6 h post-infection
[8] = 2.0 μg/ml (MIC), treatment 0 h post-infection
[9] = 2.0 μg/ml (MIC), treatment 2 h post-infection
[10] = 2.0 μg/ml (MIC), treatment 4 h post-infection
[11] = 2.0 μg/ml (MIC), treatment 6 h post-infection
[12] = 4.0 μg/ml, treatment 0 h post-infection
[13] = 4.0 μg/ml, treatment 2 h post-infection
[14] = 4.0 μg/ml, treatment 4 h post-infection
[15] = 4.0 μg/ml, treatment 6 h post-infection

CC(=O)NC[C@H]1CN(c2ccc(N3CCOCC3)c(F)c2)C(=O)O1 [Linezolid, (S)-N-[[3-[3-fluoro-4-(4-morpholinyl)phenyl]-2-oxo-5-oxazolidinyl]methyl]acetamide]
Mean OD550 [1, 4]: 0.000 ± 0.002
Mean OD550 [1, 5]: 0.000 ± 0.000
Mean OD550 [1, 6]: 0.000 ± 0.001
Mean OD550 [1, 7]: 0.274 ± 0.183
Mean OD550 [1, 8]: 0.004 ± 0.004
Mean OD550 [1, 9]: 0.001 ± 0.001
Mean OD550 [1, 10]: 0.003 ± 0.005
Mean OD550 [1, 11]: 0.083 ± 0.067
Mean OD550 [1, 12]: 0.002 ± 0.002
Mean OD550 [1, 13]: 0.003 ± 0.002
Mean OD550 [1, 14]: 0.002 ± 0.004
Mean OD550 [1, 15]: 0.082 ± 0.051
Mean OD550 ([1]; 8.0 μg/ml, treatment 0 h post-infection): 0.002 ± 0.002
Mean OD550 ([1]; 8.0 μg/ml, treatment 2 h post-infection): 0.003 ± 0.001
Mean OD550 ([1]; 8.0 μg/ml, treatment 4 h post-infection): 0.000 ± 0.001
Mean OD550 ([1]; 8.0 μg/ml, treatment 6 h post-infection): 0.021 ± 0.010
inhibition at 1 µg/mL ([1]; 0 h): 100%
inhibition at 2 µg/mL ([1]; 0 h): 99.8%
inhibition at 4 µg/mL ([1]; 0 h): 99.9%
inhibition at 8 µg/mL ([1]; 0 h): 99.9%
inhibition at 1 µg/mL ([1]; 2 h): 100%
inhibition at 2 µg/mL ([1]; 2 h): 99.9%
inhibition at 4 µg/mL ([1]; 2 h): 99.9%
inhibition at 8 µg/mL ([1]; 2 h): 99.8%
inhibition at 1 µg/mL ([1]; 4 h): 100%
inhibition at 2 µg/mL ([1]; 4 h): 99.8%
inhibition at 4 µg/mL ([1]; 4 h): 99.8%
inhibition at 8 µg/mL ([1]; 4 h): 100%
inhibition at 1 µg/mL ([1]; 6 h): 78.4%
inhibition at 2 µg/mL ([1]; 6 h): 93.4%
inhibition at 4 µg/mL ([1]; 6 h): 93.5%
inhibition at 8 µg/mL ([1]; 6 h): 98.4%
inhibition at 1 µg/mL ([2]; UC20207, 0 h): 96.5%
inhibition at 2 µg/mL ([2]; UC20207, 0 h): 99%
inhibition at 4 µg/mL ([2]; UC20207, 0 h): 99.6%
inhibition at 80 µg/mL ([2]; UC20207, 0 h): 99.8%
inhibition at 1 µg/mL ([2]; UC20207, 2 h): 97.5%
inhibition at 2 µg/mL ([2]; UC20207, 2 h): 99.8%
inhibition at 4 µg/mL ([2]; UC20207, 2 h): 99.7%
inhibition at 80 µg/mL ([2]; UC20207, 2 h): 99.6%
inhibition at 1 µg/mL ([2]; UC20207, 4 h): 68.4%
inhibition at 2 µg/mL ([2]; UC20207, 4 h): 87.8%
inhibition at 4 µg/mL ([2]; UC20207, 4 h): 99.2%
inhibition at 80 µg/mL ([2]; UC20207, 4 h): 99%
inhibition at 1 µg/mL ([2]; UC20207, 6 h): 0%
inhibition at 2 µg/mL ([2]; UC20207, 6 h): 0%
inhibition at 4 µg/mL ([2]; UC20207, 6 h): 41.4%
inhibition at 80 µg/mL ([2]; UC20207, 6 h): 75.1%
Mean OD550 [2, 4]: 0.084 ± 0.049
Mean OD550 [2, 5]: 0.064 ± 0.046
Mean OD550 [2, 6]: 0.921 ± 0.119
Mean OD550 [2, 7]: 2.757 ± 0.173
Mean OD550 [2, 8]: 0.024 ± 0.005
Mean OD550 [2, 9]: 0.004 ± 0.002
Mean OD550 [2, 10]: 0.356 ± 0.418
Mean OD550 [2, 11]: 2.938 ± 0.119
Mean OD550 [2, 12]: 0.009 ± 0.004
Mean OD550 [2, 13]: 0.007 ± 0.001
Mean OD550 [2, 14]: 0.022 ± 0.010
Mean OD550 [2, 15]: 1.558 ± 0.094
Mean OD550 ([2]; linezolid 80 μg/ml, treatment 0 h post-infection): 0.005 ± 0.002
Mean OD550 ([2]; linezolid 80 μg/ml, treatment 2 h post-infection): 0.009 ± 0.003
Mean OD550 ([2]; linezolid 80 μg/ml, treatment 4 h post-infection): 0.028 ± 0.020
Mean OD550 ([2]; linezolid 80 μg/ml, treatment 6 h post-infection): 0.662 ± 0.103
effect on bacterial adhesion at subinhibitory concentrations ([3]; concentrations less than the MIC, as low as one-fourth the MIC, five strains): surprisingly effective at preventing bacterial adhesion; also recorded: significant inhibitory effects on cell adhesion in all strains evaluated
preventing adherence to polystyrene ([3]; one-fourth the MIC, five strains): effective in preventing adherence at one-fourth the MIC in all but one strain
percent inhibition of adherence relative to control ([3]; one-half the MIC, all strains evaluated): greater than or equal to 99.0%
